PubChem BioAssay (NCI)
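48-hour exposure; five concentrations; linearly interpolated endpoints. Here, GI50 denotes the concentration required for 50% inhibition of growth. TGI denotes the concentration required for complete inhibition of growth.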

Tests used:
Experiment in all cases: inhibition of tumour cell growth, NCI panel, 48 h
786-0 renal = system: 786-0 renal
A498 renal = system: A498 renal
A549 NSCLC = system: A549 NSCLC
ACHN renal = system: ACHN renal
BT-549 breast = system: BT-549 breast
CAKI-1 renal = system: CAKI-1 renal
CCRF-CEM leukemia = system: CCRF-CEM leukemia
DU-145 prostate = system: DU-145 prostate
EKVX NSCLC = system: EKVX NSCLC
HCC-2998 colon = system: HCC-2998 colon
HCT-116 colon = system: HCT-116 colon
HCT-15 colon = system: HCT-15 colon
HL-60(TB) leukemia = system: HL-60(TB) leukemia
HOP-62 NSCLC = system: HOP-62 NSCLC
HOP-92 NSCLC = system: HOP-92 NSCLC
HS 578T breast = system: HS 578T breast
HT29 colon = system: HT29 colon
IGROV1 ovarian = system: IGROV1 ovarian
K-562 leukemia = system: K-562 leukemia
KM12 colon = system: KM12 colon
LOX IMVI melanoma = system: LOX IMVI melanoma
M14 melanoma = system: M14 melanoma
MALME-3M melanoma = system: MALME-3M melanoma
MCF7 breast = system: MCF7 breast
MDA-MB-231 breast = system: MDA-MB-231 breast
MDA-MB-435 = system: MDA-MB-435
MOLT-4 leukemia = system: MOLT-4 leukemia
NCI-H226 lung = system: NCI-H226 lung
NCI-H23 lung = system: NCI-H23 lung
NCI-H460 lung = system: NCI-H460 lung
NCI-H522 lung = system: NCI-H522 lung
NCI/ADR-RES ovarian = system: NCI/ADR-RES ovarian
OVCAR-3 ovarian = system: OVCAR-3 ovarian
OVCAR-4 ovarian = system: OVCAR-4 ovarian
OVCAR-5 ovarian = system: OVCAR-5 ovarian
OVCAR-8 ovarian = system: OVCAR-8 ovarian
PC-3 prostate = system: PC-3 prostate
RPMI-8226 leukemia = system: RPMI-8226 leukemia
RXF 393 renal = system: RXF 393 renal
SF-268 CNS = system: SF-268 CNS
SF-295 CNS = system: SF-295 CNS
SF-539 CNS = system: SF-539 CNS
SK-MEL-2 melanoma = system: SK-MEL-2 melanoma
SK-MEL-28 melanoma = system: SK-MEL-28 melanoma
SK-MEL-5 melanoma = system: SK-MEL-5 melanoma
SK-OV-3 ovarian = system: SK-OV-3 ovarian
SN12C renal = system: SN12C renal
SNB-19 CNS = system: SNB-19 CNS
SNB-75 CNS = system: SNB-75 CNS
SR leukemia = system: SR leukemia
SW-620 colon = system: SW-620 colon
T-47D breast = system: T-47D breast
TK-10 renal = system: TK-10 renal
U251 CNS = system: U251 CNS
UACC-257 melanoma = system: UACC-257 melanoma
UACC-62 melanoma = system: UACC-62 melanoma
UO-31 renal = system: UO-31 renal

CCOC(=O)c1ccc2c(c1)c1c(C)c3cnccc3c(C)c1n2C
GI50 (786-0 renal): 141 nM
TGI (786-0 renal): 1110 nM
GI50 (A498 renal): 162 nM
TGI (A498 renal): 376 nM
GI50 (A549 NSCLC): 147 nM
TGI (A549 NSCLC): 1020 nM
GI50 (ACHN renal): 38.5 nM
TGI (ACHN renal): 328 nM
GI50 (BT-549 breast): 441 nM
TGI (BT-549 breast): 1880 nM
GI50 (CAKI-1 renal): 47.5 nM
TGI (CAKI-1 renal): 859 nM
GI50 (CCRF-CEM leukemia): 216 nM
TGI (CCRF-CEM leukemia): 2940 nM
GI50 (DU-145 prostate): 108 nM
TGI (DU-145 prostate): 718 nM
GI50 (EKVX NSCLC): 193 nM
TGI (EKVX NSCLC): 690 nM
GI50 (HCC-2998 colon): 257 nM
TGI (HCC-2998 colon): 1290 nM
GI50 (HCT-116 colon): 37.8 nM
TGI (HCT-116 colon): 1030 nM
GI50 (HCT-15 colon): 57.1 nM
TGI (HCT-15 colon): 921 nM
GI50 (HL-60(TB) leukemia): 324 nM
TGI (HL-60(TB) leukemia): 1490 nM
GI50 (HOP-62 NSCLC): 75.5 nM
TGI (HOP-62 NSCLC): 1070 nM
GI50 (HOP-92 NSCLC): 143 nM
TGI (HOP-92 NSCLC): 813 nM
GI50 (HS 578T breast): 204 nM
TGI (HS 578T breast): 900 nM
GI50 (HT29 colon): 56.1 nM
TGI (HT29 colon): 1410 nM
GI50 (IGROV1 ovarian): 53.9 nM
TGI (IGROV1 ovarian): 357 nM
GI50 (K-562 leukemia): 79.2 nM
TGI (K-562 leukemia): 1320 nM
GI50 (KM12 colon): 128 nM
TGI (KM12 colon): 1030 nM
GI50 (LOX IMVI melanoma): 55.8 nM
TGI (LOX IMVI melanoma): 310 nM
GI50 (M14 melanoma): 151 nM
TGI (M14 melanoma): 383 nM
GI50 (MALME-3M melanoma): 131 nM
TGI (MALME-3M melanoma): 407 nM
GI50 (MCF7 breast): 205 nM
TGI (MCF7 breast): 1030 nM
GI50 (MDA-MB-231 breast): 160 nM
TGI (MDA-MB-231 breast): 892 nM
GI50 (MDA-MB-435): 142 nM
TGI (MDA-MB-435): 501 nM
GI50 (MOLT-4 leukemia): 59.4 nM
TGI (MOLT-4 leukemia): 1660 nM
GI50 (NCI-H226 lung): 91.1 nM
TGI (NCI-H226 lung): 382 nM
GI50 (NCI-H23 lung): 100 nM
TGI (NCI-H23 lung): 417 nM
GI50 (NCI-H460 lung): 265 nM
TGI (NCI-H460 lung): 1070 nM
GI50 (NCI-H522 lung): 88.1 nM
TGI (NCI-H522 lung): 318 nM
GI50 (NCI/ADR-RES ovarian): 68.2 nM
TGI (NCI/ADR-RES ovarian): 600 nM
GI50 (OVCAR-3 ovarian): 119 nM
TGI (OVCAR-3 ovarian): 470 nM
GI50 (OVCAR-4 ovarian): 217 nM
TGI (OVCAR-4 ovarian): 697 nM
GI50 (OVCAR-5 ovarian): 216 nM
TGI (OVCAR-5 ovarian): 912 nM
GI50 (OVCAR-8 ovarian): 116 nM
TGI (OVCAR-8 ovarian): 2990 nM
GI50 (PC-3 prostate): 137 nM
TGI (PC-3 prostate): 821 nM
GI50 (RPMI-8226 leukemia): 95.3 nM
TGI (RPMI-8226 leukemia): 1800 nM
GI50 (RXF 393 renal): 120 nM
TGI (RXF 393 renal): 390 nM
GI50 (SF-268 CNS): 98.8 nM
TGI (SF-268 CNS): 823 nM
GI50 (SF-295 CNS): 128 nM
TGI (SF-295 CNS): 765 nM
GI50 (SF-539 CNS): 173 nM
TGI (SF-539 CNS): 1070 nM
GI50 (SK-MEL-2 melanoma): 190 nM
TGI (SK-MEL-2 melanoma): 677 nM
GI50 (SK-MEL-28 melanoma): 183 nM
TGI (SK-MEL-28 melanoma): 463 nM
GI50 (SK-MEL-5 melanoma): 192 nM
TGI (SK-MEL-5 melanoma): 651 nM
GI50 (SK-OV-3 ovarian): 216 nM
TGI (SK-OV-3 ovarian): 713 nM
GI50 (SN12C renal): 78.3 nM
TGI (SN12C renal): 865 nM
GI50 (SNB-19 CNS): 107 nM
TGI (SNB-19 CNS): 1330 nM
GI50 (SNB-75 CNS): 141 nM
TGI (SNB-75 CNS): 703 nM
GI50 (SR leukemia): 44.7 nM
GI50 (SW-620 colon): 48.2 nM
TGI (SW-620 colon): 839 nM
GI50 (T-47D breast): 382 nM
TGI (T-47D breast): 15800 nM
GI50 (TK-10 renal): 334 nM
TGI (TK-10 renal): 1310 nM
GI50 (U251 CNS): 99.2 nM
TGI (U251 CNS): 830 nM
GI50 (UACC-257 melanoma): 181 nM
TGI (UACC-257 melanoma): 651 nM
GI50 (UACC-62 melanoma): 98.4 nM
TGI (UACC-62 melanoma): 264 nM
GI50 (UO-31 renal): 53.6 nM
TGI (UO-31 renal): 728 nM
